The values that follow are results of earlier work, collected in US20030026872A1, “Compositions having enhanced aqueous solubility and methods of their preparation” (The Procter & Gamble Co., priority 2001, published 2003).

Peptide text beside a SMILES is read from it.

For the data set the following is noted: relative to sucrose.
`O=C1NS(=O)(=O)c2ccccc21` [saccharin]: the “relative sweetening intensity (RSI)” value was “about 300 times that of sucrose”.
Take `CC1=CC(=O)[N-]S(=O)(=O)O1.[K+]` [acesulfame K]: the “relative sweetening intensity (RSI)” value is “about 200 times that of sucrose”.
Take cyclamates: the “relative sweetening intensity (RSI)” value was “about 30 times that of sucrose”.
For isomalt, the “relative sweetening intensity (RSI)” value is “about 0.5 times that of sucrose”.
For the molecule `OC[C@H]1O[C@@](CO)(O[C@H]2O[C@H](CO)[C@@H](O)[C@H](O)[C@H]2O)[C@@H](O)[C@@H]1O` [sucrose], the “relative sweetening intensity (RSI)” value is reported as “one”.
For `OC[C@@H](O)[C@@H](O[C@@H]1O[C@H](CO)[C@H](O)[C@H](O)[C@H]1O)[C@H](O)[C@@H](O)CO` [lactitol], the “relative sweetening intensity (RSI)” value is recorded as “about 0.4 times that of sucrose”.
Regarding `OC[C@@H](O)[C@@H](O)[C@H](O)[C@H](O)CO` [mannitol], the “relative sweetening intensity (RSI)” value is given as “about 0.7 times that of sucrose”.
Turning to `CC(C)=CCC[C@](C)(O)[C@@H]1CCC(C)=CC1=O` [hemandulcin], the “relative sweetening intensity (RSI)” value is “about 1000 times that of sucrose”.
As to `C[C@@H](NC(=O)[C@@H](N)CC(=O)O)C(=O)NC1C(C)(C)SC1(C)C` [alitame], the “relative sweetening intensity (RSI)” value was “about 2000 times that of sucrose”.
Consider `C=C1C[C@@]23CC[C@H]4[C@@](C)(CCC[C@@]4(C)C(=O)O[C@@H]4O[C@H](CO)[C@@H](O)[C@H](O)[C@H]4O)[C@@H]2CC[C@]1(O[C@@H]1O[C@H](CO)[C@@H](O)[C@H](O)[C@H]1O[C@@H]1O[C@H](CO)[C@@H](O)[C@H](O)[C@H]1O)C3` [stevioside], for which the “relative sweetening intensity (RSI)” value is recorded as “about 300 times that of sucrose”.
On to `COC(=O)[C@H](Cc1ccccc1)NC(=O)[C@@H](N)CC(=O)O` [aspartame, N-L-alpha-aspartyl-phenylalanine-l-methyl ester] (H-Asp-Phe-OMe), for which the “relative sweetening intensity (RSI)” value is given as “about 180 times that of sucrose”.
`OC[C@@H](O)[C@H](O)[C@@H](O)CO` [xylitol]: the “relative sweetening intensity (RSI)” value is “about equal to sucrose”.
Consider `OC[C@@H](O)[C@@H](O)[C@H](O)[C@@H](O)CO` [sorbitol], for which the “relative sweetening intensity (RSI)” value is listed as “about 0.6 times that of sucrose”.
Consider `OC[C@H]1O[C@H](O[C@]2(CCl)O[C@H](CCl)[C@@H](O)[C@@H]2O)[C@H](O)[C@@H](O)[C@H]1Cl` [sucralose], for which the “relative sweetening intensity (RSI)” value is reported as “about 600 times that of sucrose”.
Regarding `OC[C@@H](O)[C@@H](O)CO` [erythritol], the “relative sweetening intensity (RSI)” value was “about 0.7 times that of sucrose”.
`OC[C@@H](O)[C@@H](O[C@H]1O[C@H](CO)[C@@H](O)[C@H](O)[C@H]1O)[C@H](O)[C@@H](O)CO` [maltitol]: the “relative sweetening intensity (RSI)” value is recorded as “about 0.8 times that of sucrose”.
